Source: ChEMBL document CHEMBL4342429, “Synthesis and evaluation of substituted 8,8-dimethyl-8H-pyrano[2,3-f]chromen-2-one derivatives as vasorelaxing agents” (Bioorg Med Chem Lett, 2020)

Assays:
Mesenteric artery [1] = assay: Vasodilating activity in Wistar rat endothelium intact main mesenteric artery assessed as inhibition of U46619-induced contractions at 30 uM relative to control; format: functional
Mesenteric artery [2] = assay: Vasodilating activity in Wistar rat endothelium intact main mesenteric artery assessed as inhibition of U46619-induced contractions; format: functional, tissue-based; settings: for EC50: Rattus norvegicus, Wistar, Mesenteric artery
Mesenteric artery [3] = assay: Vasodilating activity against U46619-induced contractions in Wistar rat endothelium intact main mesenteric artery assessed as increase in sensitivity relative to scopoletin; format: functional
Mesenteric artery [4] = assay: Vasodilating activity in Wistar rat endothelium intact main mesenteric artery preconstricted with 100 nM U46619 assessed as vasorelaxation relative to control; format: functional
Mesenteric artery [5] = assay: Vasodilating activity in Wistar rat endothelium-denuded main mesenteric artery preconstricted with 100 nM U46619 assessed as vasorelaxation relative to control; format: functional
Mesenteric artery [6] = assay: Vasodilating activity in Wistar rat main mesenteric artery preconstricted with 100 nM U46619 assessed as vasorelaxation relative to control; format: functional
Mesenteric artery [7] = assay: Vasodilating activity in Wistar rat main mesenteric artery preconstricted with 100 nM U46619 assessed as vasorelaxation in presence of 80 mM KCl relative to control; format: functional
Mesenteric artery [8] = assay: Vasodilating activity in Wistar rat main mesenteric artery preconstricted with 100 nM U46619 assessed as relaxation preincubated for 20 mins in presence of 1 mM tetraethyl ammonium relative to control; format: functional
Mesenteric artery [9] = assay: Vasodilating activity in Wistar rat endothelium intact main mesenteric artery preconstricted with 100 nM U46619 assessed as vasorelaxation; format: functional, tissue-based
Mesenteric artery [10] = assay: Vasodilating activity in Wistar rat endothelium-denuded main mesenteric artery preconstricted with 100 nM U46619 assessed as vasorelaxation; format: functional, tissue-based
Mesenteric artery [11] = assay: Vasodilating activity in Wistar rat endothelium intact main mesenteric artery assessed as inhibition of U46619-induced contractions at 1000 uM relative to control; format: functional

Structure (SMILES)	Emax at 30 µM (Mesenteric artery [1])	pD2 (Mesenteric artery [2])	EC50 (Mesenteric artery [2])	fold change (FC) (Mesenteric artery [3])	other results
CCN(CC)CCOc1cc2ccc(=O)oc2c2c1OC(C)(C)C=C2	< 10%	–	–	–	–
CC1(C)C=Cc2c(c(OCCN3CCCCC3)cc3ccc(=O)oc23)O1	< 10%	–	–	–	–
CCCCCN(C)C(=O)CCCOc1cc2ccc(=O)oc2c2c1OC(C)(C)C=C2	95.1%	5.491	3.23 µM	34.67	–
CCCCCN(C)C(=O)CCCCOc1cc2ccc(=O)oc2c2c1OC(C)(C)C=C2	83.1%	5.299	5.02 µM	22.31	–
CCCCN(C)C(=O)CCCOc1cc2ccc(=O)oc2c2c1OC(C)(C)C=C2	< 10%	–	–	–	–
COc1cc2ccc(=O)oc2c2c1OC(C)(C)C=C2	96.7%	5.802	1.58 µM	70.89	Emax (Mesenteric artery [4]): 94.9%; Emax (Mesenteric artery [5]): 93.7%; Emax (Mesenteric artery [6]): 94%; Emax (Mesenteric artery [7]): 53.3%; Emax (Mesenteric artery [8]): 54.1%; Activity (Mesenteric artery [9]): Dose-dependent effect; Activity (Mesenteric artery [10]): Dose-dependent effect
CC1(C)C=Cc2c(c(OCCN3CCCC3)cc3ccc(=O)oc23)O1	< 10%	–	–	–	–
CN(C)CCOc1cc2ccc(=O)oc2c2c1OC(C)(C)C=C2	< 10%	–	–	–	–
CC(CN(C)C)Oc1cc2ccc(=O)oc2c2c1OC(C)(C)C=C2 (stereo not given)	< 10%	–	–	–	–
CCCCCN(C)C(=O)COc1cc2ccc(=O)oc2c2c1OC(C)(C)C=C2	94%	5.419	3.81 µM	29.4	–
CCCCN(C)C(=O)COc1cc2ccc(=O)oc2c2c1OC(C)(C)C=C2	65.7%	5.575	2.66 µM	42.11	–
COc1cc2ccc(=O)oc2cc1O [SCOPOLETIN]	–	3.95	112 µM	–	Emax at 1000 µM (Mesenteric artery [11]): 89.2%
CCCCN(C)C(=O)CCCCOc1cc2ccc(=O)oc2c2c1OC(C)(C)C=C2	63.6%	5.674	2.12 µM	52.83	–
